{"source": "ChEMBL document CHEMBL1152080", "about": "“Linear sesterterpenes from the Caribbean sponge Thorecta horridus with inflammatory activity” (1991)", "assay_type_in_all_cases": "functional", "key": {"Rattus norvegicus [1]": {"species": "Rattus norvegicus", "assay": "Percent release of histamine from rat peritoneal cells was determined at 1 ug/mL concentration of compound"}, "Rattus norvegicus [2]": {"system": "Rattus norvegicus", "assay": "Compound was evaluated in vivo for its inflammatory activity in rat paw pretreated with mepyramine (2.5 mg/kg) and methysergide (3 mg/Kg)after administration of compound (1 mg) and percent edema was reported"}, "Rattus norvegicus [3]": {"species": "Rattus norvegicus", "assay": "Percent release of histamine from rat peritoneal cells was determined at 0.1 ug/mL concentration of compound"}, "Rattus norvegicus [4]": {"species": "Rattus norvegicus", "assay": "Percent release of histamine from rat peritoneal cells was determined at 10 ug/mL concentration of compound"}}, "data": [{"smiles": "CC(C)=CCC/C(C)=C/CC/C(C)=C/CC/C(C)=C/CCC1=CC(=O)OC1", "values": [{"measurement": "Histamine release", "setting": "Rattus norvegicus [1]", "value": 11, "unit": "%"}, {"measurement": "Supression", "setting": "Rattus norvegicus [2]", "value": 65, "unit": "%"}, {"measurement": "Histamine release", "setting": "Rattus norvegicus [3]", "value": 4, "unit": "%"}, {"measurement": "Histamine release", "setting": "Rattus norvegicus [4]", "value": 30, "unit": "%"}]}]}
